A short description of series [1]: Phase 1 study, interim cohort pharmacokinetics. The note with it: for dose proportionality of PK: Cycle 2 Day 1 (C2D1); for exposure with increase in dose: interim cohort PK. The format is in vivo, human. As to the method:
Serial blood samples are obtained to characterize the plasma PK of Compound A and its major active metabolites. The initial sampling strategy is based on the predicted human PK of this compound. If in the course of evaluating the PK, it is determined that an alternative sampling scheme would be more informative, then that alternative sampling scheme can be implemented if the total amount of blood and blood draws obtained for PK is not increased. Moreover, the total number of samples can be decreased at any time if the initial sampling scheme is considered unnecessarily intensive.

For series [2] the following is noted: cited from earlier work.
For another series, the system named is advanced NSCLC. The note with it: cited from earlier work.
The test system of series [3] is CMV specific memory T cells. To be noted: versus isotype-matched control, dose-dependent; cited from earlier work.
A further series relates to PD-1 pathway. The note with it: cited from earlier work.
For series [4], the system named is NSCLC. To be noted: cited from earlier work.
Series [5] concerns NSCLC. To be noted: cited from earlier work. The source holds these as a separate data set.
Series [6] has as its system PD-L1-positive, advanced NSCLC. The note with it: cited from earlier work.
The test system of another series is advanced melanoma. To be noted: median follow-up 9 months after completion of 2 years of pembrolizumab; cited from earlier work.

Where two headings read alike, the source gives them in different places.

The values that follow come from US20240148740A1, “COMBINATION OF AN AHR INHIBITOR WITH A PDX INHIBITOR OR DOXORUBICINE” (Ikena Oncology, Inc., priority 2020, published 2024).

For the compound `C=C(C)c1cnn2c(N[C@@H]3CCc4[nH]c5ccccc5c4C3)nc(-c3cncc(F)c3)nc12` [Compound C], in series [1] (400 mg and 800 mg dose), the “ratio of Compound C to Compound A (AUC)” value is 15-20 % of parent. Moreover, in [1], the “dose proportionality of PK” value is “greater than dose proportional” and the “exposure with increase in dose” value is recorded as “Increased exposure with increase in dose”.
With “ipilimumab: drug combined with nivolumab; comparator in Keynote-006”, the “effect on the clearance of ipilimumab” value in series [2] (nivolumab in combination with ipilimumab) was “no effect”.
As to `CC(C)(O)c1cnn2c(N[C@@H]3CCc4[nH]c5ccccc5c4C3)nc(-c3cncc(F)c3)nc12` [Compound B], in [1] (C2D1, 400 mg and 800 mg dose), the “ratio of Compound B to Compound A” value is 1.3-1.4 x parent. For the same compound, the “Compound B metabolite ratio” value in series [1] (C2D1, cohorts above 200 mg) is reported as “increased”. For the same compound, in series [1], the “dose proportionality of PK” value is “greater than dose proportional” and the “exposure with increase in dose” value is “Increased exposure with increase in dose”. For the same compound, in series [1] (above 200 mg), the “accumulation with repeat dosing” value is listed as “Accumulation”. Further, the “AUC relative to Compound A” value in [1] (repeated dosing, 2/3 subjects at 400 and 800 mg) is recorded as “greater than Compound A”.
On to “nivolumab: human monoclonal antibody (IgG4 kappa immunoglobulin) that blocks the interaction between PD-1 and its ligands”, for which, in the series on advanced NSCLC (median follow-up 14.9 months post-randomization), the “OS HR, continued treatment” value is reported as 0.63. The “PFS HR, continue versus stop treatment” value in the series with advanced NSCLC (post-randomization after 1 year of nivolumab) was 0.42. In addition, the results for the “median PFS (post-randomization)” value in the series with advanced NSCLC (randomized to continue nivolumab) and in the series with advanced NSCLC (randomized to stop treatment) were “not reached” and 10.3 months, respectively. Moreover, the “IFN-γ secretion from CMV specific memory T cells” value in [3] is reported as “augmented IFN-γ secretion”. Also, in series [2] (3 mg/kg Q2W), the systemic accumulation result is on record as “approximately 3 fold”. For the same compound, the “time to steady-state concentrations” value in [2] (3 mg/kg Q2W) was ≤ 12 weeks. Besides, the exposure versus dose entry in series [2] (0.1 to 10 mg/kg every 2 weeks) is reported as “increased dose proportionally”. Besides, the “geometric mean clearance (CL)” value in [2] (0.1 to 10 mg/kg, single or multiple doses) was 9.5 mL/h. Also, the “geometric mean elimination half-life (t½)” value in [2] (0.1 to 10 mg/kg) is on record as 26.7 days. In addition, the “geometric mean volume of distribution at steady state (Vss)” value in [2] (0.1 to 10 mg/kg) is 8.0 L. The “increase of CL of nivolumab” value in [2] (in combination with ipilimumab) is 24%. In the series on PD-1 pathway, the “proliferation and IFN-γ release in the MLR” value was “reproducible enhancement”. For the same compound, the “subjects alive >5 years and progression-free without subsequent therapy” value in the series with NSCLC [4] (among 16 NSCLC subjects who discontinued after 2 years of treatment) is reported as 12 subjects. For the same compound, the values for the OS rate with NSCLC [4] (at 2 years) and in the series with NSCLC [4] (at 3 years) were 25% and 18%, respectively. In addition, the “2 year OS rate” value in the series on NSCLC [5] (non-squamous NSCLC) is 29%; in the series on NSCLC [5] (squamous NSCLC), 23%. Further, the “3 year OS rates” value in the series on NSCLC [5] (squamous and non-squamous NSCLC) is recorded as 16%-18%.
Take pembrolizumab: the “patients with confirmed progression after stopping at 2 years” value in series [6] (47 patients who completed 2 years) is listed as 4%. In addition, the “OS hazard ratio (HR) compared to docetaxel” value in series [6] (pembrolizumab 2 mg/kg every 3 weeks) is on record as 0.72; in series [6] (pembrolizumab 10 mg/kg every 3 weeks) it was 0.60. Moreover, the “estimated risk of progression or death” value in the series with advanced melanoma is reported as 9%.
